Laboratory results reported in patent publication US6455510B1, “Chemical Compounds” (SmithKline Beecham Corporation, priority 1997, dated 2002).

What was measured:
[1] = target: T1, human adenosine A1 receptor (Homo sapiens, UniProt P30542); assay: Reporter gene assay (CRE/SPAP) in CHO cells, agonist activity, adenosine A1; format: cell-based; conditions: CHO cells stably transfected with human adenosine A1 receptor; inhibition of forskolin-stimulated SPAP production; potency relative to NECA=1
T1 construct: expressed in transfected cells; host or cells: Chinese hamster ovary (CHO) cells containing CRE/SPAP/HYG reporter elements
T1 sequence (P30542 1-326): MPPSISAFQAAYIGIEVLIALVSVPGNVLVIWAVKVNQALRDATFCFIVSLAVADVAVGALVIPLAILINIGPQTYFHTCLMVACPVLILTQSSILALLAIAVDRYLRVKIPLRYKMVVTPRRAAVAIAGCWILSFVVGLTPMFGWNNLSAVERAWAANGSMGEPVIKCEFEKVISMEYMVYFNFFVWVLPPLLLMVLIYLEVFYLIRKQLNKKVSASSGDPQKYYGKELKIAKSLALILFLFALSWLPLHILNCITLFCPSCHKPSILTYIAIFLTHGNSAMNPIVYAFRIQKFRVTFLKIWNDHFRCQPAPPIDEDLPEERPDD
Experimental: (§1) Reporter Gene Experiments
Agonist activity was measured in Chinese hamster ovary (CHO) cells containing the CRE/SPAP/HYG (CRE=cyclic AMP response element; HYG=hygromycin resistance; SPAP=secreted placental alkaline phosphatase) reporter gene elements, which upon stimulation of cAMP levels produced SPAP. A cell line was used, which was stably transfected with either the human adenosine Al receptor or the human adenosine A3 receptor in addition to the above elements. Cells were plated out in 96-well plates in culture medium and incubated at 37° C. for 1 hour. […] 15 Min later, cAMP levels were stimulated by addition of a maximal concentration of forskolin. All cells were then incubated for a further 5 hours at 37° C., and cooled to room temperature, after which a substrate for the phosphatase (para-nitrophenol phosphate, pNPP), which is converted by SPAP to a coloured reagent) was then added and the 96-well plates were read in a plate reader. From these readings, the concentration-dependence of the inhibition by the agonist for forskolin-stimulated SPAP production can be calculated.
(§2) (ECR=equipotent concentration ratio relative to NECA=1)

[2] = target: T2, human adenosine A3 receptor (Homo sapiens, UniProt P0DMS8); assay: Reporter gene assay (CRE/SPAP) in CHO cells, agonist activity, adenosine A3; format: cell-based; conditions: CHO cells stably transfected with human adenosine A3 receptor; inhibition of forskolin-stimulated SPAP production; potency relative to NECA=1
T2 construct: expressed in transfected cells; host or cells: Chinese hamster ovary (CHO) cells containing CRE/SPAP/HYG reporter elements
T2 sequence (P0DMS8 1-318): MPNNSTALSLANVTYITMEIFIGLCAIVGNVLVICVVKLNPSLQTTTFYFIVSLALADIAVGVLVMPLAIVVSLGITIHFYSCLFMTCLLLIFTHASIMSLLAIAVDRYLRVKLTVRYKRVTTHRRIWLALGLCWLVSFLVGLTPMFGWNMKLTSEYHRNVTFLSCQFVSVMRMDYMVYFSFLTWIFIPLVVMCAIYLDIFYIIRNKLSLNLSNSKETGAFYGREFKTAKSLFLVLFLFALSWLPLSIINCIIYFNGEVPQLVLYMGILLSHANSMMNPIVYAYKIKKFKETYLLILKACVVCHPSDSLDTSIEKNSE
Experimental: as §1
Agonist activity was measured in Chinese hamster ovary (CHO) cells containing the CRE/SPAP/HYG (CRE=cyclic AMP response element; HYG=hygromycin resistance; SPAP=secreted placental alkaline phosphatase) reporter gene elements, which upon stimulation of cAMP levels produced SPAP. A cell line was used, which was stably transfected with either the human adenosine Al receptor or the human adenosine A3 receptor in addition to the above elements. Cells were plated out in 96-well plates in culture medium and incubated at 37° C. for 1 hour. For measurement of potency, agonists were added to the appropriate wells at a concentration range of approximately 10^−10-10^−5M. 15 Min later, cAMP levels were stimulated by addition of a maximal concentration of forskolin. All cells were then incubated for a further 5 hours at 37° C., and cooled to room temperature, after which a substrate for the phosphatase (para-nitrophenol phosphate, pNPP), which is converted by SPAP to a coloured reagent) was then added and the 96-well plates were read in a plate reader. From these readings, the concentration-dependence of the inhibition by the agonist for forskolin-stimulated SPAP production can be calculated. One of the agonists tested on each 96-well plate was the standard non-selective agonist, N-ethylcarboxamidoadenosine (NECA), and the potency of all test agonists is expressed relative to that of the NECA standard.
as §2

Row | Structure (SMILES) | A1 Receptor, Reporter Gene Assay ECR (equipotent concentration ratio relative to NECA=1) [1] | A3 Receptor, Reporter Gene Assay ECR (equipotent concentration ratio relative to NECA=1) [2]
1 | O[C@@H]1[C@H](O)[C@@H](CF)O[C@H]1n1cnc2c(N[C@@H]3CCC[C@H]3F)nc(Cl)nc21 [Example 6, 2-Chloro-5-deoxy-5′-fluoro-N-(2R-fluoro-cyclopent-(R)-yl)-adenosine] | – | >156.00
2 | O[C@@H]1[C@H](O)[C@@H](CF)O[C@H]1n1cnc2c(N[C@H]3CCC[C@@H]3O)nc(Cl)nc21 [Example 7, 2-Chloro-5′-deoxy-5′-fluoro-N-(2S-hydroxy-cyclopent-(S)-yl)adenosine] | – | >91.00
3 | O[C@@H]1[C@H](O)[C@@H](CF)O[C@H]1n1cnc2c(NC3CC4CCC3C4)nc(Cl)nc21 (stereo partly drawn) [Example 8, N-(endo-Bicyclo[2.2.1]hept-2-yl)-2-chloro-5′-deoxy-5′-fluoro-adenosine] | – | >91.00
4 | CCOC(=O)N1CCC(Nc2nc(Cl)nc3c2ncn3[C@@H]2O[C@H](CF)[C@@H](O)[C@H]2O)CC1 [Example 9, 4-[2-Chloro-9-(5S-fluoromethyl-3R,4S-dihydroxy-tetrahydro-furan-2R-yl)-9H-purin-6-ylamino]-piperidine-1-carboxylic acid ethyl ester] | 3.00 | >129.00
5 | O[C@@H]1[C@H](O)[C@@H](CF)O[C@H]1n1cnc2c(NC3CC4CCC3C4)ncnc21 (stereo partly drawn) [Example 11, N-(endo-Bicyclo[2.2.1]hept-2-yl)-5′-deoxy-5′-fluoro-adenosine] | – | >152.00
6 | O[C@@H]1[C@H](O)[C@@H](CF)O[C@H]1n1cnc2c(N[C@H]3CCC[C@@H]3O)ncnc21 [Example 13, 5′-Deoxy-5′-fluoro-N-(2S-hydroxy-cyclopent-(S)-yl)-adenosine] | – | >152.00
7 | CCOC(=O)N1CCC(Nc2ncnc3c2ncn3[C@@H]2O[C@H](CF)[C@@H](O)[C@H]2O)CC1 [Example 14, 4-[9-(5S-Fluoromethyl-3R,4S-dihydroxy-tetrahydro-furan-2R-yl)-9H-purin-6-ylamino]-piperidine-1-carboxylic acid ethyl ester] | 1.68 | >435.00
8 | CNS(=O)(=O)CCNc1ncnc2c1ncn2[C@@H]1O[C@H](CF)[C@H](O)[C@H]1O [Example 18, 2-[9-(5S-Fluoromethyl-3R,4R-dihydroxy-tetrahydro-furan-2R-yl)-9H-purin-6-ylamino]-ethanesulfonic acid methylamide] | 0.71 | >353.00
9 | CC(C)(C)CNc1ncnc2c1ncn2[C@@H]1O[C@H](CF)[C@@H](O)[C@H]1O [Example 19, 5′-Deoxy-5′-fluoro-N-(2,2-dimethyl-propyl)-adenosine] | 3.51 | >353.00
10 | CC(C)(C)Nc1ncnc2c1ncn2[C@@H]1O[C@H](CF)[C@@H](O)[C@H]1O [Example 20, N-tert-Butyl-5′-deoxy-5′-fluoro-adenosine] | 8.17 | >353.00
11 | O[C@@H]1[C@H](O)[C@@H](CF)O[C@H]1n1cnc2c(NC3CC4CCC3C4)nc(Cl)nc21 (stereo partly drawn) [Example 25, N-(exo-Bicyclo[2.2.1]hept-2-yl)-2-chloro-5′-deoxy-5′-fluoro-adenosine] | – | >151.00
12 | O=S1(=O)CCC(Nc2ncnc3c2ncn3[C@@H]2O[C@H](CF)[C@@H](O)[C@H]2O)CC1 [Example 27] | – | >162.00

Other lines, results leading:

Row | A1 Receptor, Reporter Gene Assay ECR (equipotent concentration ratio relative to NECA=1) [1] | A3 Receptor, Reporter Gene Assay ECR (equipotent concentration ratio relative to NECA=1) [2] | Structure (SMILES)
13 | 11.8 | >226.00 | Cc1nc(NC2CCOCC2)c2ncn([C@@H]3O[C@H](CF)[C@@H](O)[C@H]3O)c2n1 [Example 2, 5′-Deoxy-5′-fluoro-2-methyl-N-(tetrahydro-pyran-4-yl)-adenosine]
14 | 2.41 | >139.00 | O[C@@H]1[C@H](O)[C@@H](CF)O[C@H]1n1cnc2c(NC3CCOCC3)nc(Cl)nc21 [Example 3, 2-Chloro-5′-deoxy-5′-fluoro-N-(tetrahydro-pyran-4-yl)-adenosine]
15 | 190.10 | – | O[C@@H]1[C@H](O)[C@@H](C(F)(F)F)O[C@H]1n1cnc2c(NC3CCOCC3)nc(Cl)nc21 [Example 4, (2R,3 R,4S,5S)-2-[2-Chloro-6-(tetrahydro-pyran-4-ylamino)-purin-9-yl]-5-trifluoromethyl-tetrahydro-furan-3,4-diol]
16 | 7.14 | >257.00 | CC(F)(F)[C@H]1O[C@@H](n2cnc3c(NC4CC5CCC4C5)ncnc32)[C@H](O)[C@@H]1O (stereo partly drawn) [Example 5, (2R,3R,4S,5S)-2-[6-(Bicyclo[2.2.1]hept-2-ylamino)-purin-9-yl]-5-(1,1-difluoro-ethyl)-tetrahydro-furan-3,4-diol]
17 | 66.80 | >162.00 | CC(=O)N1CCC(Nc2nc(Cl)nc3c2ncn3[C@@H]2O[C@H](CF)[C@@H](O)[C@H]2O)CC1 [Example 10, 1-{4-[2-Chloro-9-(5S-fluoromethyl-3R,4S-dihydrox-tetrahydro-furan-2R-yl)-9H-purin-6-ylamino]-piperidin-1-yl}-ethanone]
18 | 9.16 | >435.00 | O=S1(=O)CCC(Nc2nc(Cl)nc3c2ncn3[C@@H]2O[C@H](CF)[C@@H](O)[C@H]2O)CC1 [Example 15, 2-Chloro-5′-deoxy-N-(1,1-dioxo-hexahydro-1δ6-thiopyran-4-yl)-5′-fluoro-adenosine]
19 | 7.29 | >240.00 | OCC(O)CNc1nc(Cl)nc2c1ncn2[C@@H]1O[C@H](CF)[C@@H](O)[C@H]1O (some centres unmarked) [Example 16, 2-Chloro-5′-deoxy-N-(2,3-dihydroxy-propyl)-5′-fluoro-adenosine]
20 | 22.30 | >353.00 | CC(F)(F)[C@H]1O[C@@H](n2cnc3c(NCC4CC4)ncnc32)[C@H](O)[C@@H]1O [Example 17, (2R,3R,4S,5S)-2-[6-(Cyclopropylmethyl-amino)-purin-9-yl]-(1,1-difluoro-ethyl)-tetrahydro-furan-3,4-diol]
